These results are taken from article PMC8938680 (2022).

The subject of this assay is E. coli thiM TPP riboswitch (ITC construct) (RNA, riboswitch) GGCAGUACUCGGGGUGCCCUUCUGCGUGAAGGCUGAGAAAUACCCGUAUCACCUGAUCUGGAUAAUGCCAGCGUAGGGAAGUGCUG
As to the kind of experiment: ITC. As to conditions: 1 mM MgCl2, 200 mM potassium acetate; 100 mM HEPES-Na pH 8.0, 25 °C.

`Cc1ncc(C[n+]2csc(CCO)c2C)c(N)n1` showed a KT of 11 µM.

For `Cc1ncc(C[n+]2csc(CCOP(=O)(O)CP(=O)(O)O)c2C)c(N)n1`, the KL is listed as 19 nM.
